# Values joined by “and” are separate entries in the source; they are usually repeats but may differ in a detail not shown here. Equal entries are not always repeated.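 Protocol summary: plate cells (96-well), add compound at 5 concentrations, incubate 48 h, interpolate endpoints linearly. GI50: concentration for 50% inhibition of growth. TGI is the concentration that stops growth completely.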 Where a SMILES comes first, the peptide text is derived from it. [ ]: non-standard residue; d: D form. The star is where a group is joined. ξ: configuration not given here. NMeN = CN[C@@H](CC(N)=O)C(=O)O; NMeV = CN[C@H](C(=O)O)C(C)C; ξNMeV = CNC(C(=O)O)C(C)C; Boc = CC(C)(C)OC(=O)*; ξNMeA = CNC(C)C(=O)O
# Experiments:
# Assay in all cases: NCI anticancer screen, dose series, 48 h
# [1] = system: A549 NSCLC
# [2] = system: CAKI-1 renal
# [3] = system: HCC-2998 colon
# [4] = system: HL-60(TB) leukemia
# [5] = system: MALME-3M melanoma
# [6] = system: NCI-H226 lung
# [7] = system: NCI-H23 lung
# [8] = system: SK-MEL-28 melanoma
# [9] = system: SK-MEL-5 melanoma
# [10] = system: SN12C renal
Compound,GI50 [1],TGI [1],GI50 [2],TGI [2],GI50 [3],TGI [3],GI50 [4],TGI [4],GI50 [5],TGI [5],GI50 [6],TGI [6],GI50 [7],TGI [7],GI50 [8],TGI [8],GI50 [9],TGI [9],GI50 [10],TGI [10]
C=CCN1C=CC(=O)[C@H](O[Si](C)(C)C(C)(C)C)[C@@H]1/C=C/c1ccccc1,16.8 µM,50.3 µM,15.7 µM,32.7 µM,16.2 µM,30.3 µM,3360 nM,20.2 µM,17.3 µM,34.3 µM,17.9 µM,36.9 µM,13.8 µM,27.9 µM,15 µM,28.6 µM,7330 nM,20 µM,13.8 µM,27.3 µM
Cc1occc1C(=S)Nc1ccc(Cl)c(/C=N/OC(C)C)c1,–,54.2 µM,–,40.9 µM,–,> 59.6 µM,–,69.8 µM,–,> 57.4 µM,–,37.6 µM,–,52.3 µM,–,> 56.4 µM,–,41.4 µM,–,35.1 µM
CCOC(=O)NC(=O)c1cn(CCCOC(=O)CCCCCCCCCCC(=O)OCCCn2cc(C(=O)NC(=O)OCC)c(=O)n(C)c2=O)c(=O)n(C)c1=O,–,> 100 µM,–,> 100 µM,–,> 100 µM,–,> 100 µM,–,> 100 µM,–,> 100 µM,–,> 100 µM,–,> 100 µM,–,> 100 µM,–,> 100 µM
C=C1C(=O)[C@@]23CC1C(O)[C@@H](OC(C)=O)[C@@H]2C1(C)C(OC(C)=O)C[C@@H](OC(C)=O)C(C)(C)[C@@H]1C[C@H]3OC(C)=O (stereo partly drawn),> 10 µM and 13.9 µg/mL,> 10 µM and 30 µg/mL,3.03 µg/mL,> 10 µM and 8.66 µg/mL,17.3 µg/mL,> 10 µM and 31.3 µg/mL,1.89 µM and 0.529 µg/mL,3.67 µM and 3 µg/mL,1.57 µM and 1.72 µg/mL,3.3 µM and 3.14 µg/mL,3.11 µg/mL,> 10 µM and 7.24 µg/mL,7.86 µM and 2.63 µg/mL,> 10 µM and 7.68 µg/mL,6.69 µM and 1.67 µg/mL,> 10 µM and 3.46 µg/mL,2.69 µM and 5.05 µg/mL,9.01 µM and 16.5 µg/mL,5.5 µg/mL,> 10 µM and 17 µg/mL
NC(=O)c1ccc2c(-c3ccnc(NCCCO)n3)c(-c3ccc(F)cc3)nn2c1,> 23 µM,> 25 µM,> 25 µM,> 25 µM,> 25 µM,> 25 µM,> 21900 nM,> 25 µM,> 25 µM,> 25 µM,> 25 µM,> 25 µM,> 25 µM,> 25 µM,> 25 µM,> 25 µM,> 25000 nM,> 25 µM,> 25 µM,> 25 µM
C=C(C)CN(CC#N)CC(=C)C,–,> 100 µM,–,> 100 µM,–,> 100 µM,–,> 100 µM,–,> 100 µM,–,> 100 µM,–,> 100 µM,–,> 100 µM,–,> 100 µM,–,> 100 µM
CCN=c1cc2sc3cc(NCC)c(C)cc3nc-2cc1C,1.84 µM,10.9 µM,1.34 µM,4.6 µM,3.5 µM,11.8 µM,1660 nM,8.48 µM,0.782 µM,3.88 µM,10.1 µM,29 µM,0.437 µM,3.69 µM,11.7 µM,25.6 µM,475 nM,1.93 µM,1.5 µM,12.5 µM
O=C(N/N=C/c1ccccc1Cl)c1ccccc1Nc1ccnc(C(F)(F)F)c1,3.01 µM,8.91 µM,0.389 µM,2.72 µM,1.74 µM,7.24 µM,1710 nM,–,1.55 µM,4.94 µM,0.811 µM,3.52 µM,1.82 µM,8.18 µM,2.39 µM,27.6 µM,627 nM,2.71 µM,1.27 µM,12.7 µM
CCn1c(O)c(C=N)c(=O)n(CC)c1=O,–,> 100 µM,–,> 100 µM,–,> 100 µM,–,> 100 µM,–,> 100 µM,–,> 100 µM,–,> 100 µM,–,> 100 µM,–,> 100 µM,–,> 100 µM
CCCCCCCCCCC(O)C1CCC(C(O)CCC(O)C2CCC(CCCCCCC[C@H](O)CC3=C[C@@H](C)OC3=O)O2)O1 (stereo partly drawn),8.66 µM,> 100 µM,–,> 100 µM,–,> 100 µM,–,13.4 µM,–,> 100 µM,–,40.4 µM,–,69.4 µM,–,> 100 µM,5970 nM,> 64.3 µM,–,> 100 µM
CCc1nc(N)nc(C(=O)NCCNC(=O)c2nc(N)nc(CC)c2C)c1C,–,> 100 µM,–,> 100 µM,–,> 100 µM,–,> 100 µM,–,> 100 µM,–,> 100 µM,–,> 100 µM,–,> 100 µM,–,> 100 µM,–,> 100 µM
COC(=O)c1c2c(c(C)[n+]([O-])c1C)C(=O)C=C(NCc1ccc(OC)cc1)C2=O,2.21 µM,6.44 µM,1.5 µM,6.81 µM,1.54 µM,4.78 µM,794 nM,2.21 µM,0.3 µM,0.845 µM,2.66 µM,7.94 µM,1.36 µM,4.35 µM,3.2 µM,10 µM,607 nM,1.21 µM,1.69 µM,4.3 µM
CCCN1CCN(c2ccc3nc(-c4ccc5nc(-c6cc(OC)ccc6OC)[nH]c5c4)[nH]c3c2)CC1,1.85 µM,3.64 µM,15.9 µM,30.7 µM,1.8 µM,3.25 µM,3120 nM,8.91 µM,20.3 µM,40.9 µM,20.2 µM,46 µM,1.93 µM,3.85 µM,18.9 µM,35.9 µM,15100 nM,34.1 µM,16.3 µM,32.8 µM
COc1ccc(CNc2c3ccccc3nc3ccc(OC)cc23)cc1,2.59 µM,7.46 µM,1.76 µM,3.72 µM,1.85 µM,3.76 µM,2150 nM,4.73 µM,1.89 µM,3.72 µM,2.54 µM,9.14 µM,1.78 µM,4.71 µM,1.88 µM,3.68 µM,1950 nM,3.87 µM,3.31 µM,12.6 µM
COc1c(Cl)c2c(c(OC)c1OC)-c1ccc(SC)c(=O)cc1[C@@H](NC(=O)OCC(F)(F)F)CC2,< 0.01 µM,> 100 µM,< 0.0227 µM,> 56.8 µM,< 0.01 µM,3.99 µM,< 10 nM,< 0.01 µM,< 0.0104 µM,42.6 µM,< 0.01 µM,41.5 µM,< 0.01 µM,> 100 µM,5.99 µM,> 100 µM,< 10 nM,0.0184 µM,< 0.01 µM,> 100 µM
COc1cccc(-c2nc3sccn3c2-c2ccnc(NCCNS(=O)(=O)c3ccccc3)c2)c1,2.68 µM,> 100 µM,1.42 µM,> 100 µM,6.23 µM,> 100 µM,1710 nM,5.56 µM,2.79 µM,> 100 µM,2.48 µM,10.5 µM,2.64 µM,13.3 µM,5.13 µM,> 100 µM,1530 nM,4.89 µM,2.91 µM,> 100 µM
O=P([O-])(O)OP(=O)([O-])O.[NH-][C@@H]1CCCC[C@H]1[NH-].[Pt+4],10 µM,> 100 µM,6.41 µM and 5.25 µM,> 100 µM and 41.7 µM,81 µM and 10.6 µM,> 100 µM and 64.5 µM,> 70200 nM,> 100 µM,11.7 µM and 2.98 µM,> 100 µM and 29 µM,32.3 µM and 5.29 µM,> 100 µM and 33.6 µM,18.4 µM and 12.3 µM,> 100 µM and 91.1 µM,14.1 µM and 5.74 µM,> 100 µM and 61.8 µM,–,> 100 µM and 14.9 µM,17.6 µM and 8.78 µM,> 100 µM
COC(=O)C(C)N(C)C(=O)[C@H](CC(N)=O)N(C)C(=O)[C@@H]1CCCN1C(=O)[C@H](C(C)C)N(C)C(=O)C(C(C)C)N(C)C(=O)[C@@H](NC(=O)OC(C)(C)C)C(C)C (stereo partly drawn) (Boc-V[ξNMeV][NMeV]P[NMeN][ξNMeA]-OMe),> 100 µM,50 µM and > 100 µM,> 100 µM,> 100 µM,> 100 µM,> 100 µM,> 100000 nM,50 µM and > 100 µM,–,> 100 µM,> 100 µM,> 100 µM,–,> 50 µM,> 100 µM,> 100 µM,> 100000 nM,50 µM and > 100 µM,> 100 µM,> 100 µM
CC1=C2C[C@H]3[C@@H](CC=C4C[C@@H](O)CC[C@@]43C)[C@@H]2CC[C@]12O[C@@H]1C[C@H](C)CN[C@H]1[C@H]2C,16.8 µM and 17.5 µM,50 µM and 39.4 µM,29.2 µM and 20 µM,50 µM and 44.5 µM,16.9 µM and 21.6 µM,50 µM and 39.4 µM,11500 nM and 15700 nM,50 µM and 55.1 µM,19.3 µM and 17.6 µM,50 µM and 36 µM,> 50 µM and 23.1 µM,> 50 µM and 55.3 µM,29 µM and 29.7 µM,50 µM and > 100 µM,> 50 µM and 48.5 µM,> 100 µM,> 50000 nM and 21700 nM,> 50 µM and 53.5 µM,25.6 µM and 18.3 µM,50 µM and 47.4 µM
Nc1nc(=S)[nH]c(C(=O)Nc2ccc(Cl)c(Cl)c2)c1-c1ccc(Cl)cc1,–,> 100 µM,–,> 100 µM,–,> 100 µM,–,> 100 µM,–,> 100 µM,–,> 100 µM,–,> 100 µM,–,> 100 µM,–,> 100 µM,–,> 100 µM
C1CCN(C2OC3C(COC3N3CCCCC3)OC2OC2CCO[C@@H]2N2CCCCC2)CC1 (stereo partly drawn),–,> 100 µM,–,> 100 µM,–,> 100 µM,–,67.8 µM,–,83.2 µM,–,54.1 µM,–,78.6 µM,–,> 100 µM,–,> 100 µM,–,> 100 µM
O=S(=O)(c1ccc(N=C2NN=C(c3c[nH]c4ccccc34)CS2)cc1)N1CCOCC1,8.68 µM,> 100 µM,78.1 µM,> 100 µM,24.6 µM,> 100 µM,2250 nM,> 100 µM,34.8 µM,> 100 µM,7.74 µM,> 100 µM,18.3 µM,> 100 µM,37.7 µM,> 100 µM,2510 nM,16.4 µM,79.4 µM,> 100 µM
Cc1cc2cc3c(C)cc(=O)oc3c(C)c2o1,–,> 100 µM,–,> 100 µM,–,> 100 µM,–,> 100 µM,–,> 100 µM,–,> 100 µM,–,> 100 µM,–,> 100 µM,–,> 100 µM,–,> 100 µM

# Reference: PubChem BioAssay (NCI)
